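Step 1: Grow cells in 96-well plates. Step 2: Expose to compound for 48 hours at 5 concentrations. Step 3: Interpolate endpoints linearly; if unreached, use highest concentration. GI50 = concentration required for 50% inhibition of growth.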 Calls of active or inactive are those of the source. Rule as the data show it: active = GI50 up to about 1.1 µM and inactive = higher.
Tests used:
Assay in all cases: NCI tumour cell line growth inhibition, 48 h
[1] = system: 786-0
[2] = system: HL-60
[3] = system: HOP-92
[4] = system: HT-29
[5] = system: K562
[6] = system: M14
[7] = system: OVCAR-3
[8] = system: OVCAR-5
[9] = system: RXF 393
[10] = system: SK-MEL-5
[11] = system: SK-OV-3
[12] = system: TK-10
[13] = system: U-251
[14] = system: HCC 2998
[15] = system: UO-31

Measured: GI50

Cn1c(N)c(-c2c3ccccc3nc3ccccc23)c(=O)n(C)c1=O
inactive: [1] > 100 µM | [2] > 100 µM | [3] > 100 µM | [4] > 100 µM | [5] > 100 µM | [6] > 100 µM | [7] > 100 µM | [8] > 100 µM | [9] > 100 µM | [10] > 100 µM | [11] > 100 µM | [12] > 100 µM | [13] > 100 µM

O=C(Nc1cccc(NC(=O)c2cc(=O)c3ccccc3o2)n1)c1cc(=O)c2ccccc2o1
inactive: [1] > 100 µM | [14] 60.1 µM | [2] 32.3 µM | [3] 17.3 µM | [5] 5.46 µM | [6] 12.3 µM | [7] 37.6 µM | [8] > 100 µM | [9] 20.8 µM | [10] 64.9 µM | [11] > 100 µM | [12] > 100 µM | [13] 66.8 µM | [15] 10.4 µM

Oc1ccc(O)c(-n2cccn2)c1
inactive: [1] 62.1 µM | [14] > 100 µM | [2] 18.7 µM | [3] 45.9 µM | [4] 65.9 µM | [5] 24.2 µM | [6] > 100 µM | [8] 88.9 µM | [9] 38.1 µM | [10] > 100 µM | [11] > 100 µM | [12] 32.1 µM | [13] > 100 µM | [15] 56.4 µM

O=C(CCc1nnc2s/c(=C\c3ccc([N+](=O)[O-])cc3)c(=O)n12)Nc1ccc(Cl)c(Cl)c1
inactive: [1] 17.9 µM | [14] 22.3 µM | [2] 17.3 µM | [3] 38.6 µM | [4] 30.3 µM | [5] 20.3 µM | [6] 21.6 µM | [7] 13.1 µM | [8] 36.2 µM | [9] 18.2 µM | [10] 58.1 µM | [11] 38.5 µM | [12] 34 µM | [13] 16.6 µM | [15] 41.5 µM

O=C(O)c1cc(-c2ccccc2O)nc2ccccc12
inactive: [1] > 100 µM | [14] > 100 µM | [4] > 100 µM | [5] > 100 µM | [6] > 100 µM | [7] > 100 µM | [8] > 100 µM | [10] > 100 µM | [11] > 100 µM | [12] > 100 µM | [13] > 100 µM | [15] > 100 µM

CC(=O)Nc1ccccc1[S+]([O-])c1ccccc1 (stereo unspecified)
inactive: [1] > 100 µM | [14] > 100 µM | [2] > 100 µM | [3] > 100 µM | [4] > 100 µM | [5] > 100 µM | [6] > 100 µM | [7] > 100 µM | [8] 4.21 µM | [9] > 100 µM | [10] > 100 µM | [11] 84.5 µM | [12] > 100 µM | [13] > 100 µM | [15] > 100 µM

CCOC(=O)CC1NC(=O)CS1 (stereo unspecified)
inactive: [1] 45.8 µM | [14] > 100 µM | [2] > 100 µM | [3] > 100 µM | [4] > 100 µM | [5] 80.4 µM | [6] > 100 µM | [7] > 100 µM | [8] > 100 µM | [10] > 100 µM | [11] > 100 µM | [12] > 100 µM | [13] > 100 µM | [15] > 100 µM

C#CCN(C)C(=O)N(CC#C)N=O
inactive: [1] > 100 µM | [2] > 100 µM | [3] > 100 µM | [4] > 100 µM | [5] > 100 µM | [6] > 100 µM | [7] > 100 µM | [8] 29.5 µM | [9] > 100 µM | [10] > 100 µM | [11] > 100 µM | [12] > 100 µM | [13] 54.2 µM | [15] > 100 µM

O=C(c1ccccc1)C(c1ccccc1)C1(O)C(=O)Nc2ccccc21 (stereo unspecified)
inactive: [1] > 100 µM | [14] > 100 µM | [2] > 100 µM | [3] > 100 µM | [4] > 100 µM | [5] > 100 µM | [6] > 100 µM | [7] > 100 µM | [8] > 100 µM | [9] > 100 µM | [10] > 100 µM | [11] > 100 µM | [12] > 100 µM | [15] 44.4 µM

Cc1ccc(S(=O)(=O)n2cc(/C=C/C#N)c(/C=C/C#N)c2)cc1
inactive: [1] > 100 µM | [2] 25.5 µM | [3] 24.8 µM | [4] > 100 µM | [5] 34 µM | [6] 89.7 µM | [7] 37.1 µM | [8] > 100 µM | [9] 33.7 µM | [10] 39.2 µM | [11] > 100 µM | [12] > 100 µM | [13] 94.8 µM | [15] 23.4 µM

Cc1ccc(C(=O)NC(C)C)cc1/N=N/N(C)C
inactive: [1] > 100 µM | [14] > 100 µM | [3] > 100 µM | [4] > 100 µM | [6] > 100 µM | [7] > 100 µM | [10] > 100 µM | [12] > 100 µM | [13] > 100 µM | [15] > 100 µM

NC(=O)c1cccc(C2OC(COP(=O)(O)O)C(O)C2O)c1 (stereo unspecified)
inactive: [1] 21.7 µM | [14] > 50 µM | [2] 20.7 µM | [4] > 50 µM | [5] 26.8 µM | [6] 20 µM | [7] > 50 µM | [8] > 50 µM | [9] 18.6 µM | [10] > 50 µM | [11] > 50 µM | [12] > 50 µM | [13] > 50 µM | [15] 26.1 µM

CC(=O)O[C@H]1CCN2C(=O)C=CC(OCc3ccccc3)C12 (stereo partly specified)
inactive: [1] > 100 µM | [14] > 100 µM | [2] > 100 µM | [3] > 100 µM | [4] > 100 µM | [5] > 100 µM | [6] > 100 µM | [7] > 100 µM | [8] > 100 µM | [10] > 100 µM | [11] > 100 µM | [12] > 100 µM | [13] > 100 µM | [15] > 100 µM

CC12CC[C@@H](C(C)(C)O)C1[C@@H](O)CC1(C)C2CCC2[C@@]3(C)CC[C@H](O)C(C)(C)C3C(O)C[C@]21C (stereo partly specified)
inactive: [1] 12.1 µM | [14] 16.3 µM | [2] 5.27 µM | [3] 17.4 µM | [4] 12.6 µM | [5] 11.8 µM | [6] 19.9 µM | [7] 16.8 µM | [8] 17.5 µM | [9] 6.85 µM | [10] 4.07 µM | [12] 16.4 µM | [13] 13.4 µM | [15] 21.6 µM

Reference: ChEMBL document CHEMBL1201862, “PubChem BioAssay data set” (2004)
